# Legend:
# Rat Tail-Flick = assay type: in vivo; set-up: key to activity in rat Tail Flick model: *: Inactive; Φ: Weakly active
# Rat tooth pulp = assay type: in vivo; details: unmarked entry of animal model table
# [1] = Five-day Oral Dose Escalation in Beagle Dogs; assay type: in vivo, Beagle dog
# [2] = molecular target: T1, delta receptor sites in the brain (Homo sapiens, UniProt P41143); experiment: Activity at delta receptor sites in the brain; assay type: binding
# T1 construct: mu, kappa, delta or sigma receptor sites in the brain; from tissue
# [3] = Safety pharmacology, monkey; assay type: in vivo
# [4] = molecular target: T2, rat synaptosomal 5-HT Reuptake (Rattus norvegicus, UniProt P31652); experiment: Serotonin reuptake assay (rat synaptosomal 5-HT uptake); assay type: biochemical
# T2 construct: rat synaptosomal 5-HT and NE Reuptake; from tissue; host or cells: rat synaptosomes (rat brain preparations)
# Dog tooth pulp = assay type: in vivo; details: unmarked entry of animal model table
# [5] = molecular target: T3, rat synaptosomal NE Reuptake (Rattus norvegicus, UniProt Q63380); experiment: Norepinephrine reuptake assay (rat synaptosomal NE uptake); assay type: biochemical
# T3 construct: rat synaptosomal 5-HT and NE Reuptake; from tissue; host or cells: rat synaptosomes (rat brain preparations)
# [6] = Studies in animals: addictive and respiratory depressant properties; assay type: in vivo; details: versus narcotic-related analgesics
# Formalin model = assay type: in vivo; details: rat
# Text: Formalin induces inflammatory stimulation of peripheral nerves that results in sensitization of CNS nociceptive transmission pathways. There are two phases of formalin-induced nociception: phase I—an acute nociceptive component; and phase II—a chronic nociceptive component characterized by hyperalgesia.
# On the morning of formalin testing, a small metal band (0.5 g) was loosely placed around the right hind paw. The rat was placed in a cylindrical Plexiglas chamber for adaptation for a minimum of 30 minutes. Compound A, venlafaxine or a saline control was administered into the dorsal surface of the right hindpaw of the rat. The animal was then placed into the chamber of the automated formalin apparatus where movement of the formalin-injected paw was monitored and the number of paw flinches tallied by minute over the next sixty minutes. Upon completion of the test the animal was removed and euthanized.
# Safety pharmacology, rat = assay type: in vivo
# [7] = all administered doses, versus saline control
# T3 sequence (Q63380 1-617): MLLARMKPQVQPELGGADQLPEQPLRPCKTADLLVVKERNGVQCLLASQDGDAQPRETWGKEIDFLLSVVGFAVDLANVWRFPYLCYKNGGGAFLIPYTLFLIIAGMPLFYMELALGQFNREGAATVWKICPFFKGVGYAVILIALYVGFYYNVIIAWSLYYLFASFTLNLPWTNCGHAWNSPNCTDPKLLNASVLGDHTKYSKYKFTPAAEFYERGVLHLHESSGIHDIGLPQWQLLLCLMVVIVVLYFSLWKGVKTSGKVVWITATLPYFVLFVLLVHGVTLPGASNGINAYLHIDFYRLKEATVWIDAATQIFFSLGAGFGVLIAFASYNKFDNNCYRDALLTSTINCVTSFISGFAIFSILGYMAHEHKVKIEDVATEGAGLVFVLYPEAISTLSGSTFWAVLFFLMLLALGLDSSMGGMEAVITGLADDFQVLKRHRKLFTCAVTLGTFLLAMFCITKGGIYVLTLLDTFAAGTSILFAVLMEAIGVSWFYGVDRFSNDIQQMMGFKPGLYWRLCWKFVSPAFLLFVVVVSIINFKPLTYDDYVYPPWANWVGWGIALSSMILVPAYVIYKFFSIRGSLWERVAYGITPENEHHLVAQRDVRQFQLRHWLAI
# T2 sequence (P31652 whole entry): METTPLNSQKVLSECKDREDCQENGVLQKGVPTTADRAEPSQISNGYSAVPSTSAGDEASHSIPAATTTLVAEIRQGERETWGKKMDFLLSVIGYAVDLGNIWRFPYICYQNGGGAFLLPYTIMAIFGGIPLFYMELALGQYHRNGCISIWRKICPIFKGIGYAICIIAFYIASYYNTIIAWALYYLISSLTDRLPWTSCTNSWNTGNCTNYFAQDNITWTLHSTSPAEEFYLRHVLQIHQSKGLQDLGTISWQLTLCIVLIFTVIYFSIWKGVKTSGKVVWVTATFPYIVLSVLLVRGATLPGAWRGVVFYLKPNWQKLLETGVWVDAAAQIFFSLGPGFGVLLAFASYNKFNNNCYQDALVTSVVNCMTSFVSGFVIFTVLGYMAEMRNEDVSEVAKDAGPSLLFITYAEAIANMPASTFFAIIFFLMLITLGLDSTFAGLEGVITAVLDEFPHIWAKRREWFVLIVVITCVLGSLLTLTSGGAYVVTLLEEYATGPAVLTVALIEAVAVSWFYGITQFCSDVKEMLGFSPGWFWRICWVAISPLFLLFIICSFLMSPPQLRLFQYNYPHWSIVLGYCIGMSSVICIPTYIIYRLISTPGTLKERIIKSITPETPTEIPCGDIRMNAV
# T1 sequence (P41143 whole entry): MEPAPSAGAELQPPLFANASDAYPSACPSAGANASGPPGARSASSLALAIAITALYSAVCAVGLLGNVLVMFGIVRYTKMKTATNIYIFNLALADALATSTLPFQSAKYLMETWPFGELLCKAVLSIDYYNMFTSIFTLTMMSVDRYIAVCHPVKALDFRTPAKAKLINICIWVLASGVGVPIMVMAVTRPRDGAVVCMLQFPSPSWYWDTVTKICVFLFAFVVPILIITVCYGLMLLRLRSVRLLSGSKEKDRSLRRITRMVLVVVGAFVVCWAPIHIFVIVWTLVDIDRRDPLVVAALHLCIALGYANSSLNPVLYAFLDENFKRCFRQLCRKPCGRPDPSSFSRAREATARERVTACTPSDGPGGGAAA
structure (smiles),measurement,setting,value
"CN1CCC(c2ccsc2)(C(C)(C)O)CC1 [Compound A, 4-(3-thienyl)-α,α,1-trimethyl-4-piperidinemethanol]",Rat Tail-Flick,Rat Tail-Flick,Inactive
same,activity in rat Tail Flick model,Rat Tail-Flick,Tail Flick*
same,activity in rat Tooth pulp model,Rat tooth pulp,showed activity
same,NOEL (mydriasis),[1],NOEL < 2.5 mg/kg
same,MTD at 5 day,"[1]; dog, in vivo, read-out: MTD (decreased BW)",< 20 mg/kg
same,activity at delta receptor sites,[2],does not show significant activity
same,MTD,"[3]; in vivo, other: iv/sc",16 to 32 mg/kg
same,LD,[3]; iv/sc,LD = 1.6-32 mg/kg
same,physical dep,[3]; iv/sc,non-opioid
same,"respiratory depression, multiple of effective dose (mg/kg)",[3]; iv/sc,16/32
same,Chronic dosing: effect at 0.4,"[3]; iv/sc, 0.4, at 7 days",0.4 = retching
same,Chronic dosing: effect at 1.6,"[3]; iv/sc, 1.6, at 11 days",1.6 = death
same,Chronic dosing: effect at 1.6,"[3]; iv/sc, 1.6, at 20 days",1.6 = death
same,IC50,[4],120 nM
same,uptake of serotonin,[4]; rat brain preparations,inhibits uptake
same,activity in dog Tooth pulp model,Dog tooth pulp,showed activity
same,uptake of norepinephrine,[5]; rat brain preparations,inhibits uptake
same,IC50,"[5]; rat synaptosomal, read-out: NE uptake inhibition IC50",223 nM
same,addictive and respiratory depressant properties,[6],lacks the addictive and respiratory depressant properties
same,effect upon hyperalgesia induced by injection of formalin into the paw,Formalin model,reliable dose dependent effect
same,"formalin test, paw flinches, phase I","Formalin model; all administered doses (200/100/50 mg per kg), versus saline control",statistically significant effects
same,"formalin test, paw flinches, phase II",Formalin model; [7],statistically significant effects
same,"formalin test, paw flinches, phase IIA",Formalin model; [7],statistically significant effects
same,"formalin test, paw flinches, Phase IIB",Formalin model; versus saline control,No statistical significance
same,LD,"Safety pharmacology, rat; po",LD = 400 mg/kg-po
same,"anorexia, multiple of effective dose (mg/kg)","Safety pharmacology, rat; po","10,100,300 mg/kg"
same,physical dep,"Safety pharmacology, rat; po",non-opioid
same,"respiratory acidosis, exophthalmia, multiple of effective dose","Safety pharmacology, rat; po",1-50 X
same,LD,"Safety pharmacology, rat; sc",LD = 270 mg/kg-sc
